Measurements: patent publication US20250123282A1, “METHODS FOR EVALUATION AND TREATMENT OF TYROSINE KINASE INHIBITOR (TKI)-RESISTANT ACUTE MYELOID LEUKEMIA” (LOMA LINDA UNIVERSITY, priority 2021, published 2025)

What was measured:
[1] = tested on: MV4-11 cells; test: Coculture of GILT and exogenous MIF on MV4-11 (sequential or simultaneous); type: cell-based, human; conditions: MV4-11, sequential coculture 5 days, 80 nM GILT only
Description: To investigate whether MIF/CXCLs-CXCR2 pathways could be activated by TKI-treatment in viable blasts to support their survival and continuous proliferation, a serial coculture was conducted to examine whether the supplementation of exogenous MIF at early (simultaneous) or late stage (sequential) of TKI treatment could rescue the GIL-treated MV4-11 in vitro. CD44, a multifunctional cell surface adhesion receptor, was identified as a key regulator of quiescent AML leukemic stem cells (LSCs) which are highly microenvironment dependent. […] In the simultaneous coculture, another group of CD44High^+ cells was also found which included both Ki67^+ and Ki67^− subsets (FIG. 8F). This group of CD44High^+ cells could be visualized in the flow cytometry histogram (FIG. 8G). […] CD44high^+ stem-like cells have been previously found to be highly tumorigenic, treatment-resistant and responsible for metastatic progression in breast cancer.

[2] = tested on: MV4-11 blasts; test: GILT combined with MIF inhibitor or CXCR2 inhibitor on MV4-11 blasts in vitro (FACS); type: cell-based, human; conditions: 80 nM GILT, 50 uM SB225002, 3 days
Description: Whether targeting the MIF-CXCR2 signaling pathway would effectively treat AML blasts were investigated. First, the combination of GILT with ribosomal protein S19 (RPS19) on MV4-11 blasts was tested in vitro. RPS19, a MIF inhibitor, has been reported to suppress cisplatin-activated MIF-CD74-NFκB signaling pathway in acute kidney injury. […] The combination of 80 nM GILT with 50 uM SB225002, a CXCR2-inhibitor (CXCR2-I) on MV4-11 blasts in vitro were examined. […] The anti-leukemic effect of combining GILT with CXCR2-I on primary BMMNC ex vivo were examined. […] There may be alternative cytokine pathways compensating for the defect of MIF-CXCR2 pathways.
For MIF in vitro experiments, different doses of MIF were added to 1 ml of 1×10^6 MV4-11 cells or RAW264.7 cells for each experimental group in 24-well plates. Two days after the one dose treatment, cells were then collected for either analyses by FACS and qPCR. As combination agents to treat blasts in vitro or ex vivo, one dose of 80 nM GILT with one dose of different inhibitors were added to 1 ml of 1×10^6 MV4-11 cells or 1 ml of 0.5-1×10^6 primary AML BMMNC for each experimental group in 24-well plates. Dose-dependent experiments of CXCR2 inhibitor and NFκB inhibitor with or without 80 nM GILT were performed. […] Three days after the one dose treatment, cells were then collected for either analyses by FACS and qPCR.
Flow Cytometry (FACS). Cells were harvested and examined for the expression of cell surface biomarkers (CD) and intracellular proteins by multichromatic FACS as previously described. About 1×10^4˜10^6 cells in 100 μl FACS buffer (PBS containing 1% FBS and 0.05% sodium azide) were stained with various fluorescence-conjugated antibodies specific for the desired cell surface proteins at 4° C. for 30 min. The surface-stained cells were then fixed and permeabilized using the appropriate reagents (e.g. the BD Pharmingen Cytofix/Cytoperm buffer) and stained with different fluorescence-conjugated antibodies specific for the desired intracellular proteins at 4° C. for 2 hours in the permeabilizing buffer (e.g. the BD Perm/Wash buffer). Concentrations of the Abs were used per the manufacturers' recommendations. Finally, the cells were washed twice in the permeabilizing buffer and twice in the FACS buffer before being analyzed on the BD FACSAria II. Data was analyzed using the FlowJo software (Tree Star Inc., Ashland, OR).

[3] = tested on: primary AML BMMNC; test: Human cytokine proteome profile array of cell-free supernatants from treated primary AML BMMNC; type: cell-based; conditions: 80 nM GILT, 3 days ex vivo, Patient #1 and #2, vs non-treated control
Description: To identify the protein(s) responsible for initiation of the survival mechanism and subsequent proliferation of AML blasts, human cytokine proteome profile arrays of cell-free supernatants from GILT-treated MV4-11's cultures were performed. […] Under the no treatment (No Tx) condition, MV4-11 releases numerous cytokines such as MIF in their supernatant; however, one dose of GILT-treatment eliminated release of a variety of cytokines such as osteopontin (arrows, FIG. 7A), a protein closely associated with adverse prognosis in AML patients. Next, bone marrow mononuclear cells (BMMNC) from AML patients were treated for 3 days ex vivo.
Human Samples. AML bone marrow (BM) mononuclear cells (BMMNC) (Patients #1-7, Table 4) were obtained from the City of Hope National Medical Center (COHNMC). All donor patients signed an informed consent form. Sample acquisition was approved by the Institutional Review Boards at the LLUMC and the COHNMC in accordance with an assurance filed with and approved by the Department of Health and Human Services, and it met all requirements of the Declaration of Helsinki.
For MIF in vitro experiments, different doses of MIF were added to 1 ml of 1×10^6 MV4-11 cells or RAW264.7 cells for each experimental group in 24-well plates. Two days after the one dose treatment, cells were then collected for either analyses by FACS and qPCR. […]

CCc1nc(C(N)=O)c(Nc2ccc(N3CCC(N4CCN(C)CC4)CC3)c(OC)c2)nc1NC1CCOCC1 [GILT, Gilteritinib]
percentage of viable quiescent CD44+ cell population [1]: 17.7%
percentage of viable CD44+ MV4-11 blasts [2]: 12.2%
percentage of Ki67+CD44+ blasts ([2]; MV4-11): 12.2%
MIF release increase in the supernatant [3]: 2.1 fold
